Data set [1] relates to CD4+ and CD8+ T cells. Put plainly: Surface expression of CD27 and CCR7 by flow cytometry (phenotypic subset profile). Type of data set: cell-based, human. The note with it: thawed.
The subject of a further data set is anti-CD19 CAR T cells. Put plainly: Long-term stimulation over 12 days with anti-idiotype antibody beads, expansion and survival. Type of data set: cell-based, human. The conditions noted are these: anti-ID beads, cells produced in presence vs absence of compound 63. The protocol:
CD4+ and CD8+ T cells were isolated by immunoaffinity-based enrichment from leukapheresis samples from human donor subjects. At day 1, isolated CD4+ and CD8+ T cells were mixed 1:1 and stimulated with an anti-CD3/anti-CD28 oligomeric stimulatory reagent generated as described in Example 1 in serum-free media supplemented with recombinant IL-2 (100 IU/mL), recombinant IL-7 (600 IU/mL), and recombinant IL-15 (100 IU/mL) with or without 1 μM of 2-(3-hydroxyphenyl)-9-(2-isopropylphenyl)-8-oxo-8,9-dihydro-7H-purine-6-carboxamide (Compound 63). The T cells cultured with our without Compound 63 were incubated overnight (approximately 24 hr) at 37° C., and were then transduced in serum-free culture media with our without Compound 63 ([…]) with a lentiviral vector encoding an anti-CD19 CAR. The CAR contained an scFv antigen-binding domain specific for CD19 (derived from FMC63), a CD28 transmembrane region, a 4-1BB costimulatory signaling region, and a CD3-zeta derived intracellular signaling domain. […]
To further assess the functional activity of the cells, the generated T cell compositions were stimulated long-term over 12 days with beads conjugated with an anti-idiotype (ID) antibody against the anti-CD19 CAR, and expansion and survival of the cells were monitored (FIG. 17F, left panel) and total expansion metric calculated by area under the growth curve (FIG. 17F, right panel, AUC).

The subject of another data set is CAR-T cells. Put plainly: Intracellular caspase expression (marker of apoptosis) in thawed CAR-T cells. Type of data set: cell-based, human. The conditions noted are these: incubated with vs without compound 63.
Data set [2] deals with CD4+ and CD8+ T cells. Put plainly: Viable cells in engineered T cell composition over the process. The note with it: presence vs absence of compound 63 in the process. The data set is classed as cell-based, human. The protocol: (§1) CD4+ and CD8+ T cells were isolated by immunoaffinity-based enrichment from leukapheresis samples from human donor subjects. […] The T cells cultured with our without Compound 63 were incubated overnight (approximately 24 hr) at 37° C., and were then transduced in serum-free culture media with our without Compound 63 ([…]) with a lentiviral vector encoding an anti-CD19 CAR. […] Following transduction, the cells were incubated in serum free media without recombinant cytokines (basal media) and with or without Compound 63 (1 mM) and allowed to incubate at about 37.0° C. in an incubator for up to 96 hours after initiation of the stimulation with the anti-CD3/anti-CD28 oligomeric stimulatory reagent (until day 5 of the process). […] The cryofrozen engineered CD4+ and CD8+ T cells were thawed, and T cells were assessed for intracellular S6 phosphorylation, a ribosomal protein and marker of mTOR inhibition, and co-stained for surface expression of CD4 or CD8 and for CCR7 and CD45RA as markers of memory subsets. pS6 expression in live CD8+ T cells by memory subsets was shown by the expression of CCR7 and CD45RA as shown in FIG. 16A. As shown, incubation with Compound 63 decreased the mean fluorescence intensity of stimulated memory T cell subsets, […], indicating an inhibition of mTOR, while having no significant effect on the percentage or total number of viable cells over time.

In another data set the test system is mTOR. Put plainly: Intracellular S6 phosphorylation (marker of mTOR inhibition) in engineered T cells. Type of data set: cell-based, human. The conditions noted are these: live CD8+ T cells, Temra, Tem subsets; cells produced with vs without Compound 63. The protocol:
as §1

For data set [3], the system named is CD4+ and CD8+ T cells. Put plainly: Intracellular cytokines following stimulation with PMA/Ionomycin and a Golgi inhibitor. Type of data set: cell-based, human. The conditions noted are these: engineered CD8+ and CD4+ T cells produced in presence of Compound 63.
For data set [4], the target named is Strep-Tactin® (mutein streptavidin, e.g. SEQ ID NO: 4) (Streptomyces avidinii, UniProt P22629, E68V/S69T/V71R). The conditions noted are these: background statement, no experiment described; read-out: KD of binding to Strep-Tactin®; cited from earlier work.

pKd: −log10 of the molar value.

Chain of Strep-Tactin® (mutein streptavidin, e.g. SEQ ID NO: 4) (P22629 other isoform, or with tags, fused parts or gaps E68V/S69T/V71R): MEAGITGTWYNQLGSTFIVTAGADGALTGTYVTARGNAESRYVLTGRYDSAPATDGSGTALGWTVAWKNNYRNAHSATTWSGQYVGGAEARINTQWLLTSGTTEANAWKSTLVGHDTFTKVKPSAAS

For `CC(C)c1ccccc1-n1c(=O)[nH]c2c(C(N)=O)nc(-c3cccc(O)c3)nc21` [Compound 63, 2-(3-hydroxyphenyl)-9-(2-isopropylphenyl)-8-oxo-8,9-dihydro-7H-purine-6-carboxamide], the “phenotypic subset profile by CD27 and/or CCR7 expression” value in the data set with CD4+ and CD8+ T cells [1] is given as “did not substantially alter”. Moreover, the “function (expansion) following long-term CAR-specific stimulation” value with anti-CD19 CAR T cells is on record as “improved function”. Besides, the intracellular caspase expression result in the data set with CAR-T cells is “less intracellular caspase expression”. Further, in the data set with CD4+ and CD8+ T cells [2], the percent viable cells entry is given as “did not impact” and the total live cells result is “did not impact”. Besides, in the data set on mTOR, the “mean fluorescence intensity of pS6 in memory T cell subsets” value was “decreased”. Further, in the data set on CD4+ and CD8+ T cells [3], the “level of intracellular cytokines IL2, IFNg, or TNF” value is listed as “substantially improved”.

What is called pKd is the Kd on a negative log10 scale, so that one unit is a factor of ten. For the compound WSHPQFEK [Strep-Tag® II], the pKd in data set [4] was roughly 6.00.

The values above are taken from patent US20250237628A1, “CELL SELECTION AND/OR STIMULATION DEVICES AND METHODS OF USE” (Juno Therapeutics GmbH, priority 2019, published 2025).
